One assay concerns myocardial cells. Put plainly: Activity of preventing cardiomyocyte apoptosis induced by TM (MTT cell survival). The format is cell-based, Neonatal Wistar rats. The settings on record: Cardiomyocyte, primary neonatal rat myocardial cells, compound 30 min before TM 0.5 μg/ml, 48 h, read-out: Protection effects against cardiomyocyte apoptosis induced by TM, EC50. On the procedure:
Neonatal Wistar rats newborn within 24 h, not confined to female or male (provided by the Center of Laboratory Animals, Academy of Military Medical Science of the PLA, animal certificate No.: SCXK-( ? ) 2007-004). High-sugar DMEM culture medium, trypsinase, and type II collagenase purchased from Gibco Company; fetal bovine serum (FBS) purchased from Beijing Yuanhengshengma Biological Technology Institute; 5-bromo-2-deoxyuridine (5-Brdu), tunicamycin (TM) purchased from Sigma Company; thiazolyl blue (MTT), dimethyl sulfoxide (DMSO) which is the product of Amresco; other chemical agents were all analytical pure and made in China. Universal Microplate ReaderEL800 type of ELIASA was a product of BIO-TEK Company of US.
neonatal Wistar rats newborn within 24 h were used, skin of abdomen was sterilized with iodine and alcohol. Tissue of ventricular apex was taken out with aseptic operation, cut into pieces with 1 mm^3 size, added with suitable amount of 0.125% pancretin and 0.1% collagenase II (final concentration was respectively 0.1% and 0.02%), mechanical shaking in 37° C. water-bath, 10 min each time, digested repeatedly until the tissue pieces were completely digested. The prepared myocardial cell suspension was inoculated in a 75 cm^2 culture flask. Non-myocardial cells were removed by differential adhesion method. The myocardial cell density was adjusted with DMEM culture medium containing 10% FBS, inoculated to a 96-well plate in an amount of 10^4/ml, placed in 5% CO2 incubator at 37° C. for 24 h for primary culture. Half medium was replaced after 24 h, a culture medium containing 0.1% 5-Brdu (5-bromo-2-deoxyuridine) was replenished to inhibit the growth of non-myocardial cells. The medium was replaced once per 48 h for primary culture.
Measurement of compound activity: myocardial cells were cultured for 4 days, respectively treated with compound in different concentrations (0.3 μM, 1 μM, 3 μM) for 30 min, then added with TM to final concentration of 0.5 μg/ml (TM group with final concentration of 0.5 μg/ml and solvent control group (DMSO) were set at the same time), and placed in 37° C., 5% CO2 incubator and cultured for 48 h, then each well was added with 10 μl of MTT (5 mg/ml) and continuously incubated for 4 h, finally each well was added with 100 μL of 10% SDS, incubated at 37° C., 5% CO2 for 24 h, so that MTT crystal was completely dissolved. ELISA was used to measure light absorbance of each well under 550 nm wavelength, in which TM and the compound of the present invention were formulated with DMSO. The formula is: cell survival rate (%)=OD value of administration group/average OD value of solvent control well×100%. The results were expressed in x±SD, and EC50 values (Table 1) were calculated with software, so that the effect of compound of the present invention preventing cardiomyocyte apoptosis induced by TM was determined.
As for `O=C(/C=C/c1ccccc1)NC(Nc1nc(-c2ccccc2)cs1)C(Cl)(Cl)Cl` (stereo not shown) [Example 6], the EC50 was 30 µM.

For the compound `O=C(/C=C/c1ccccc1)NC(Nc1nc(-c2ccc(F)cc2F)cs1)C(Cl)(Cl)Cl` (stereo not shown) [Example 4, (2E)-3-(2-phenyl)-N-[1-(2,4-difluorophenyl-2-thiazolyl)-2,2,2-trichloroethyl]-2-acrylamide], the EC50 was determined as 0.8 µM.

Turning to `O=C(/C=C/c1ccccc1)NC(Nc1nc(-c2ccc(Cl)cc2)cs1)C(Cl)(Cl)Cl` (stereo not shown) [Example 5, (2E)-3-(2-phenyl)-N-[1-(4-chlorophenyl-2-thiazolyl)-2,2,2-trichloroethyl]-2-acrylamide], the EC50 was determined as 0.3 µM.

For `O=C(/C=C/c1ccccc1)NC(Nc1nc(-c2ccccc2)c(-c2ccccc2)s1)C(Cl)(Cl)Cl` (stereo not shown) [Example 2], the EC50 worked out at 47 µM.

Regarding `COc1ccc(-c2csc(NC(NC(=O)/C=C/c3ccccc3)C(Cl)(Cl)Cl)n2)cc1` (stereo not shown) [Example 3, (2E)-3-(2-phenyl)-N-[1-(4-methoxyphenyl-2-thiazolyl)-2,2,2-trichloroethyl]-2-acrylamide], the EC50 was determined as 61 µM.

Consider `COc1ccc(-c2nc(NC(NC(=O)/C=C/c3ccccc3)C(Cl)(Cl)Cl)sc2-c2ccccc2)cc1` (stereo not shown) [Example 1], for which the EC50 is 100 µM.

Still in this assay, the particulars now being: primary neonatal rat myocardial cells, TM 0.5 μg/ml.
Take `O=C(/C=C/c1ccccc1)NC(Nc1nc(-c2ccc(Cl)cc2)cs1)C(Cl)(Cl)Cl` (stereo not shown) [Example 5, (2E)-3-(2-phenyl)-N-[1-(4-chlorophenyl-2-thiazolyl)-2,2,2-trichloroethyl]-2-acrylamide]: the “Protection effects against cardiomyocyte apoptosis induced by TM (in words)” value is “good protection effects”.

These data come from patent publication US9139543B2, “Thiazole compounds and uses thereof” (Institute of Pharmacology and Toxicology Academy of …, priority 2012, dated 2015).
